Ends that are not written are not given here.
Key:
Rho = test system: Rho; parameters: method as in 2 sources, one per row (each row's own in cited_ref): ref [23] = [23]; PMID 8466900; doi:10.1021/bi00065a007; 23 Zwiefka A. Kohn H. Widger W.R. Transcription termination factor rho: The site of Bicyclomycin inhibition in Escherichia coli Biochemistry 32 1993 3564 3570 8466900 10.1021/bi00065a007 ||| ref [24], [25], [26] = [24]; PMID 17565995; doi:10.1074/jbc.M702010200; 24 Gutiérrez P. Kozlov G. Gabrielli L. Elias D. Osborne M.J. Gallouzi I.E. Gehring K. Solution structure of YaeO, a rho-specific inhibitor of transcription termination J. Biol. Chem. 282 2007 23348 23 || [25]; PMID 21673658; doi:10.1038/emboj.2011.192; 25 Rabhi M. Espéli O. Schwartz A. Cayrol B. Rahmouni A.R. Arluison V. Boudvillain M. The Sm-like RNA chaperone Hfq mediates transcription antitermination at Rho-dependent terminators EMBO J. 30 2011 2 || [26]; PMID 31628950; doi:10.1016/j.jmb.2019.09.019; 26 Pal K. Yadav M. Jain S. Ghosh B. Sen R. Sen U. Vibrio cholerae YaeO is a structural homologue of RNA chaperone Hfq that inhibits rho-dependent transcription termination by dissociating its hexameri; details: cited from earlier work; for Rho antagonism (in words): ref [24], [25], [26]
isolated Rho–NTD monomer = assay: interaction with isolated Rho-NTD monomer; format: binding, Escherichia coli; details: data not shown
E. coli MG1655 = format: cell-based, Escherichia coli; details: MG1655, pNL150, IPTG induction (100 μM), LB, 37 °C, 6 h; three independent colonies
E. coli Rho [1] = assay: single round in vitro Rho-dependent transcription termination, T7A1-trpt′ template; format: biochemical, Escherichia coli
[2] = test system: Mycobacterium smegmatis mc^2155; format: cell-based
[3] = test system: Rho proteins from pathogenic bacteria; format: biochemical; details: 35 μM peptide 33, 50 nM Rho, E. coli RNAP stalled EC, trpt′
MG1655 gene expression = format: cell-based, Escherichia coli; details: qRT-PCR, relative to empty vector
E. coli Rho [4] = assay: Rho-mediated RNA release from stalled (roadblocked) elongation complex; format: biochemical, Escherichia coli; details: for inhibition of Rho-induced RNA release from stalled EC (in words): Fig. 3E; for inhibition of Rho-induced RNA release from stalled EC (in words) / Frac. of RNA released (%): Fig. S4B
E134K Rho = E134K Rho (Escherichia coli, UniProt P0AG30, E134K); format: biochemical; details: E134K Rho + peptide; λTR1 RNA; exponential decay fit; two to three measurements
P167L Rho [5] = target: P167L Rho (Escherichia coli, UniProt P0AG30, P167L); assay: biochemical; format: binding
CD spectrometry = format: physicochemical; details: 10 mM 2-(N-morpholino)ethanesulfonic acid pH 5.5, 190 to 270 nm, 25 °C
Mycobacterium bovis BCG = format: cell-based
[6] = pH 5.5
E134K Rho mutant = format: cell-based, Escherichia coli; details: IPTG induction
[7] = test system: Rho mutants, R144E, R146E, and E148R; format: cell-based, Escherichia coli; details: 0 and 100 μM IPTG
[8] = test system: Rho-dependent termination (trpt′ and trac terminators, lacZ reporter); format: cell-based, Escherichia coli; details: Fig. 3
E. coli Rho [9] = format: biochemical, Escherichia coli
[10] = test system: Rho mutants, R66G and Y80C; format: cell-based, Escherichia coli; details: 50 μM IPTG
[11] = test system: Rho-dependent termination (galEP3 reporter); assay: in vivo Rho-dependent termination, galEP3 reporter, MacConkey-galactose plates; format: cell-based, Escherichia coli; details: MC4100 galEP3, MacConkey-galactose plates, overexpression
WT Rho = WT Rho (Escherichia coli, UniProt P0AG30); format: biochemical
P167L Rho [12] = target: T1, P167L Rho (E. coli, UniProt P0AG30 1-419, P167L); assay: pull-down; His-tagged peptides (30 μg peptide 16, 20 μg peptide 33) or His-tagged WT Psu (15 μg) bound to Ni-NTA beads at 4 °C for 12 to 16 h in 100 mM NaH2PO4 pH 8.0, 100 mM NaCl, 10 mM imidazole, 1 mM PMSF; 5 μg non-His-tagged P167L Rho added with 1 mM ATP, 37 °C, 20 min; wash 50 mM imidazole, elution 500 mM imidazole; SDS-Tricine PAGE; details: both partners purified
T1 construct: also called Rho P167L; non-His-tagged P167L Rho

[13] = ITC, 1 μM Rho P167L, 50 μM peptide, 1 mM ATP, pH 8.0, 25 °C, average of three experiments ± SD, Fig. 4B
[14] = Rho + NusG-CTD (5 μM) + ATP, average of three experiments ± SD, Fig. 6A
[15] = Rho + Poly dC34 (10 μM) + ATP, average of three experiments ± SD, Fig. 6A
[16] = Rho + PolyC (2 mM Poly(rC)), average of three experiments ± SD, Fig. 6A
[17] = Rho + ATP, average of three experiments ± SD, Fig. 6A
[18] = Rho bound to the single-stranded DNA and RNA

For `C=C1CCO[C@]2([C@@H](O)[C@@](C)(O)CO)NC(=O)[C@@]1(O)NC2=O` [bicyclomycin], the “Rho inhibition (in words)” value (Rho; ref [23]) is listed as “directly binds near the ATP-binding sites and inhibits Rho functions”.

For Hfq: PBS-binding Rho antagonist, the “Rho antagonism (in words)” value (Rho) is listed as “PBS-binding Rho antagonists”.

In the case of “MHHHHHHTPAQFIFFRVKVRNWHTSVSVKAWLFWRMREDFQPDTD [peptide 33]”, the “interaction with isolated Rho-NTD monomer (in words)” value (isolated Rho–NTD monomer) is reported as “unable to interact with an isolated Rho–NTD monomer”, the “growth defect upon expression (in words)” value (E. coli MG1655) is reported as “severe growth defects” and the “effect on transcription when Rho was absent (in words)” value (E. coli Rho [1]; no Rho) is reported as “did not have any effect on transcription when Rho was absent”. The “growth phenotype upon streaking (in words)” value [2] was “very sick phenotype”, the “transformants obtained (in words)” value [2] was “fewer colonies than those obtained from the transformation with the empty vector” and the “inhibition of RNA release by pathogenic Rho proteins (in words)” value [3] was “could inhibit the termination process by all the different Rho proteins”. For the same molecule, the “upregulation of tested genes (in words)” value (MG1655 gene expression) was “higher level of upregulation of these genes than that when its CTDΔ8 derivative was expressed”, the “inhibition of Rho-induced RNA release from stalled EC (in words)” value (“inhibition of Rho-induced RNA release” for short) (E. coli Rho [4]) was “significantly inhibited” and the “inhibition of Rho-induced RNA release” value (E. coli Rho [4]; listed as Peptide 33) was “exerted its action at a lower concentration than peptide 16”. The “concentration for maximal effects” value (E. coli Rho [4]; in general, varied between different lots) was at least 50 µM, the “Frac. of RNA released (%)” value (E. coli Rho [4]; peptide 25, Rho 50 nM) was 31± 0.4% and the “Frac. of RNA released (%)” value (E. coli Rho [4]; peptide 35, Rho 50 nM) was 16 ± 0.4%. The “Frac. of RNA released (%)” value (E. coli Rho [4]; peptide 50, Rho 50 nM) was 13 ± 0.4%, the “λ (average rate of ATP hydrolysis)” value (E134K Rho) was 0.0155 min⁻¹ and the Kd (P167L Rho [5]; [13]) was 16.6 ± 3 nM. It also gave a Kd (P167L Rho [5]; P167L Rho, ITC) of 17 nM, a Kd (P167L Rho [5]; [14]) of 26.5 ± 0.3 nM and a Kd (P167L Rho [5]; [15]) of 255 ± 100 nM. For the same molecule, the Kd (P167L Rho [5]; [16]) was 164 ± 48 nM, the n (P167L Rho [5]; [17]) was 3.75 ± 0.2 and the ΔG (P167L Rho [5]; [17]) was -11 ± 0.1 kcal/mol. The ΔH (P167L Rho [5]; [17]) was -28 ± 0.9 kcal/mol, the ΔS (P167L Rho [5]; [17]) was -57 ± 3 cal/mol.K and the n (P167L Rho [5]; [14]) was 3.1 ± 0.1. For the same molecule, the ΔG (P167L Rho [5]; [14]) was -10.3 ± 0.02 kcal/mol, the ΔH (P167L Rho [5]; [14]) was -26 ± 3 kcal/mol and the ΔS (P167L Rho [5]; [14]) was -52 ± 10 cal/mol.K. It also gave a n (P167L Rho [5]; [15]) of 1.9 ± 0.3, a ΔG (P167L Rho [5]; [15]) of -9.1 ± 0.3 kcal/mol and a ΔH (P167L Rho [5]; [15]) of -23.7 ± 4 kcal/mol. The ΔS (P167L Rho [5]; [15]) was -49.00 ± 13 cal/mol.K, the n (P167L Rho [5]; [16]) was 2.9 ± 0.1 and the ΔG (P167L Rho [5]; [16]) was -9.3 ± 0.2 kcal/mol. For the same molecule, the ΔH (P167L Rho [5]; [16]) was -27.1 ± 3.5 kcal/mol, the ΔS (P167L Rho [5]; [16]) was -59.6 ± 12.3 cal/mol.K and the “binding stoichiometry (in words)” value (P167L Rho [5]; [18]) was “also reduced”. For the same molecule, the “thermodynamic parameters (in words)” value (P167L Rho [5]; [18]) was “not changed significantly”, the “affinity for Rho (in words)” value (P167L Rho [5]; in the presence of NusG CTD) was “not affected significantly” and the “reduction of affinity for Rho” value (P167L Rho [5]; in the presence of polyC) was 10 fold. For the same molecule, the “reduction of affinity for Rho” value (P167L Rho [5]; in the presence of polydC34) was 15 fold, the “secondary structure by CD (in words)” value (CD spectrometry) was “predominantly α-helical” and the “growth phenotype upon streaking (in words)” value (Mycobacterium bovis BCG) was “very sick phenotype”. For the same molecule, the “solubility at mildly acidic pH (in words)” value [6] was “properly soluble at a mildly acidic pH”, the “effect on growth of E134K Rho compared with WT (in words)” value (E134K Rho mutant) was “less severe effect on the growth of the E134K Rho than its WT counterpart” and the “peptide-induced growth defect with Rho mutants (in words)” value [7] was “could not prevent the peptide-induced growth defect”. For the same molecule, the “in vivo antitermination / Rho inhibitory properties (in words)” value [8] was “strong in vivo antitermination of Rho-dependent termination”, the “inhibition of ATPase activity of E. coli Rho (in words)” value (E. coli Rho [9]) was “more efficient than peptide 16 in inhibiting this Rho function” and the “effect on growth of Rho mutants compared with WT (in words)” value [10] was “very severe”. The “colour of colonies, galEP3 reporter (in words)” value [11] was “appearance of red colonies”, the “reduction of rate of ATP hydrolysis” value (WT Rho; WT Rho) was about 5.5 fold and the “λ (average rate of ATP hydrolysis)” value (WT Rho; WT Rho + peptide, λTR1 RNA, exponential decay fit, two to three measurements) was 0.009 min⁻¹.

For “MHHHHHHTPAQGMIFSVKVRTGITSVSVKAWLFWRMREDFQPDTD [peptide 16]”, the “growth defect upon expression (in words)” value (E. coli MG1655) was “severe growth defects”, the “effect in transcription termination assay with Rho (in words)” value (E. coli Rho [1]; data not shown) was “much less” and the “inhibition of Rho-induced RNA release” value (E. coli Rho [4]) was “significantly inhibited”. The “inhibition of Rho-induced RNA release” value (E. coli Rho [4]; listed as Peptide 16) was “could efficiently inhibit the RNA release of Rho only when stalled EC was used”, the “Frac. of RNA released (%)” value (E. coli Rho [4]; peptide 25, Rho 50 nM) was 38 ± 2% and the “Frac. of RNA released (%)” value (E. coli Rho [4]; peptide 50, Rho 50 nM) was 22 ± 0.8%. The “Frac. of RNA released (%)” value (E. coli Rho [4]; peptide 100, Rho 50 nM) was 13 ± 2%, the Kd (P167L Rho [5]; [13]) was 214 ± 113 nM and the “binding affinity and stoichiometry (in words)” value (P167L Rho [5]; compared with peptide 33, ITC) was “binds with much weaker affinity and with significantly reduced stoichiometry”. For the same molecule, the “secondary structure by CD (in words)” value (CD spectrometry) was “predominantly α-helical”, the “solubility at mildly acidic pH (in words)” value [6] was “properly soluble at a mildly acidic pH” and the “peptide-induced growth defect with Rho mutants (in words)” value [7] was “could not prevent the peptide-induced growth defect”. For the same molecule, the “in vivo antitermination / Rho inhibitory properties (in words)” value [8] was “strong in vivo antitermination of Rho-dependent termination” and the “colour of colonies, galEP3 reporter (in words)” value [11] was “appearance of red colonies”.

B1: YaeO: PBS-binding Rho antagonist (protein, UniProt P0AFW8 1-84, looked up)
Protein rof: MNDTYQPINCDDYDNLELACQHHLMLTLELKDGEKLQAKASDLVSRKNVEYLVVEAAGETRELRLDKITSFSHPEIGTVVVSES
In the case of B1, the “Rho antagonism (in words)” value (Rho) is given as “PBS-binding Rho antagonists”.

B2: His-tagged WT Psu (polarity suppression protein, bacteriophage P4 capsid protein) (natural protein)
chain: MESTALQQAFDTCQNNKAAWLQRKNELAAAEQEYLRLLSGEGRNVSRLDELRNIIEVRKWQVNQAAGRYIRSHEAVQHISIRDRLNDFMQQHGTALAAALAPELMGYSELTAIARNCAIQRATDALREALLSWLAKGEKINYSAQDSDILTTIGFRPDVASVDDSREKFTPAQNMIFSRKSAQLASRQSV
B2: binds (P167L Rho [12]).

Source: article PMC8141534 (The Journal of Biological Chemistry, 2021)
